The source of these data is patent US5393788A, “Phenylalkyl oxamides” (SmithKline Beecham Corporation, priority 1993, dated 1995).

One test has as its system TNF / endotoxin shock. The experiment in a line: Two in vivo models of endotoxin shock (one or both, not specified). Further details: species or system mouse. Conditions: for protection from the lethal effects of endotoxin shock: in vivo endotoxin shock models. From the text:
(§1) Two models of endotoxin shock have been utilized to determine in vivo TNF activity for the compounds of Formula (1). The protocol used in these models is described in Badger et al., EPO published Application 0 411 754 A2, Feb. 6, 1991, and in Hanna, WO 90/15534, Dec. 27, 1990.

The subject of test [1] is TNF production / endotoxic shock. The test can be described thus: P acnes/LPS treated mice model of endotoxic shock. The test is classed as in vivo.
Text: as §1

The next test concerns serum TNF. The experiment in a line: LPS/GAL mouse model of endotoxic shock. The format is in vivo.
Text: as §1

With `COc1ccc(CCNC(=O)C(N)=O)cc1OC` [Example 8, N-[2-(3,4-Dimethoxyphenyl)ethyl]oxamide], in the test with TNF / endotoxin shock, the “protection from the lethal effects of endotoxin shock” value is reported as “protected the animals from endotoxic induced shock”. Moreover, the “in vivo TNF levels” value in the test with TNF / endotoxin shock (one or both of the in vivo assays) is given as “inhibited in vivo TNF levels”.

As for `COc1ccc(CCNC(=O)C(N)=O)cc1OC1CCCC1` [Example 15, N-[2-(3-Cyclopentyloxy-4-methoxyphenyl)ethyl]oxamide], the “protection from the lethal effects of endotoxin shock” value in the test with TNF / endotoxin shock is listed as “protection from the lethal effects of endotoxin shock”. In addition, the survival rate in test [1] (P acnes/LPS model, control group 100% lethality) is on record as 80%. Besides, the TNF production entry in test [1] (P acnes/LPS treated mice) was “inhibition of TNF production”. For the same compound, the “serum TNF levels” value with serum TNF is listed as “reduction in serum TNF levels”.
